The text below walks through data of US7998965B2, “Glutamate aggrecanase inhibitors” (Wyeth LLC, priority 2005, dated 2011).

For assay [1], the target named is T1, purified recombinant human Aggrecanase-2 (Ag2t-Phe628-Strep) (Homo sapiens, UniProt Q9UNA0).
T1 construct: the form used is denoted as Ag2t-Phe628-Strep (MW=41,737)
T1 sequence (Q9UNA0 262-628): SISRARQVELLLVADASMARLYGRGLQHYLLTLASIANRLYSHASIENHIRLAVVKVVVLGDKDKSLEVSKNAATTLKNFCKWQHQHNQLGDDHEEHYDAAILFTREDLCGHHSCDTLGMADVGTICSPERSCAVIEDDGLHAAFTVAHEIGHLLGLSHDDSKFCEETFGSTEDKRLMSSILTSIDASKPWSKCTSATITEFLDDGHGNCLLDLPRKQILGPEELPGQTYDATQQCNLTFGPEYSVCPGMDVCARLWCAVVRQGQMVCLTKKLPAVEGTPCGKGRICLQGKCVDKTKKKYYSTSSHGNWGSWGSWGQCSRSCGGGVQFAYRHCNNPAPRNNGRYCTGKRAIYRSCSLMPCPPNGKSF
Briefly: In vitro fluorescence screen for Aggrecanase-2 inhibitors. The following applies: for IC50: read-out: Agg 2 IC50; for Ki: read-out: Ki Agg2. The class given is biochemical.

The target in assay [2] is T2, purified recombinant human Aggrecanase-1 (rAgg1) (Homo sapiens, UniProt O75173).
T2 sequence (O75173 213-837): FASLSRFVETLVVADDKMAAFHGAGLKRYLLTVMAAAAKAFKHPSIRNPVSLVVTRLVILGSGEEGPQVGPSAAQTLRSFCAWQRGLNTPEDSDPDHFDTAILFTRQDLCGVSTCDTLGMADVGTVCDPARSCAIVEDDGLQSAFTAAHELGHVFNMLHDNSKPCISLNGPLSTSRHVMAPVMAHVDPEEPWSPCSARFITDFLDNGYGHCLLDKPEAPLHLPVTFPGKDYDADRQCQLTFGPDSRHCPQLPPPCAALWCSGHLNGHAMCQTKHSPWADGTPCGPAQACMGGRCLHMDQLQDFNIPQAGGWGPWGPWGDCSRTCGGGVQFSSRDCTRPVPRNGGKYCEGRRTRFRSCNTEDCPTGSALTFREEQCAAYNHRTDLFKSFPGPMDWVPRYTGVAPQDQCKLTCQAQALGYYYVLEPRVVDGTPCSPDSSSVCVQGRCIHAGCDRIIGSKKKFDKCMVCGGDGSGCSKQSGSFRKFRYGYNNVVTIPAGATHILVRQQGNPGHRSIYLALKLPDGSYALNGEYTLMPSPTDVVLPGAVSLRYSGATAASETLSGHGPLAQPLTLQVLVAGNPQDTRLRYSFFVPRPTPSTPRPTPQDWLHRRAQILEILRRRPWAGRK
Nature of the assay: In vitro fluorescence screen for Aggrecanase-1 inhibitors. The class given is biochemical. The following applies: for IC50: read-out: Agg1 IC50; for Ki: read-out: Ki Agg1.

Setting [3] is: read-out: Agg 2 % at concentration.

Like-named read-outs stand apart in the source and are kept apart here.

Take `CC(C)(Cc1ccccc1)NC(=O)[C@H](CCC(=O)O)NC(=O)c1ccc(-c2ccccc2)nc1` [N-(1,1-dimethyl-2-phenylethyl)-N^2-[(6-phenylpyridin-3-yl)carbonyl]-L-α-glutamine]: the IC50 in assay [1] (Table 3) was 700 nM; in assay [2] (Table 3), 100 nM.

Consider `CC(C)(Cc1ccc(F)cc1)NC(=O)[C@H](CCC(=O)O)NC(=O)c1ccc(-c2ccc3c(c2)CCO3)cc1` [Example 8RRRRRRR, N^2-[4-(2,3-dihydro-1-benzofuran-5-yl)benzoyl]-N-[2-(4-fluorophenyl)-1,1-dimethylethyl]-L-α-glutamine], for which the inhibition at 1.2 µM in assay [1] (setting [3]) amounted to 48%. Moreover, the IC50 in assay [2] (Table 3) was in the range of 70 to 210 nM.

In the case of `CC(=O)c1ccc(-c2ccc(C(=O)N[C@@H](CCC(=O)O)C(=O)NC(C)(C)Cc3ccc(Cl)cc3)cc2)s1` [N^2-[4-(5-acetyl-2-thienyl)benzoyl]-N-[2-(4-chlorophenyl)-1,1-dimethylethyl]-L-α-glutamine], the inhibition at 7.4 µM in assay [1] (setting [3]) is 50%. For the same compound, in assay [2] (Table 3), the IC50 came out at 2400 nM.

As for `COc1cc(CNC(=O)[C@H](CCC(=O)O)NC(=O)C2c3ccccc3-c3ccccc32)cc(OC)c1OC` [Example 8VVVV, N^2-(9H-fluoren-9-ylcarbonyl)-N^1-(3,4,5-trimethoxybenzyl)-L-α-glutamine], the IC50 was above 67000 nM in assay [1] (Table 2) and above 17000 nM in assay [2] (Table 2).

`O=C(O)CC[C@H](NC(=O)c1ccc(-c2ccccc2)cc1)C(=O)NCCc1cccc(Cl)c1` [Example 8YY, N^2-(1,1′-biphenyl-4-ylcarbonyl)-N^1-[2-(3-chlorophenyl)ethyl]-L-α-glutamine]: the IC50 came out at 4500 nM in assay [1] (Table 1) and 530 nM in assay [2] (Table 1).

As to `Cc1cccc(CNC(=O)[C@H](CCC(=O)O)NC(=O)c2ccc(-c3ccc(CO)cc3)cc2)c1` [Example 8PPPPPPP, N^2-{[4′-(hydroxymethyl)biphenyl-4-yl]carbonyl}-N-(3-methylbenzyl)-L-α-glutamine], the inhibition at 16.7 µM in assay [1] (Table 3, at 16700 (nM), read-out: Agg 2 % at concentration) worked out at 48%. The half-maximal inhibitory concentration (IC50) in assay [2] (Table 3) came out at 3120 nM.

Consider `CC(C)(NC(=O)[C@H](CCC(=O)O)NC(=O)C1c2ccccc2-c2ccccc21)c1ccccc1` [Example 8NNNNN, N^2-(9H-fluoren-9-ylcarbonyl)-N^1-(1-methyl-1-phenylethyl)-L-α-glutamine], for which the results for the IC50 in assay [1] (Table 2) and in assay [2] (Table 2) were 1890 nM and 1200 nM, respectively.

For `O=C(O)CC[C@H](NC(=O)c1ccc2c(c1)C(=O)c1ccccc1-2)C(=O)NCc1ccccc1` [Example 8IIIII, N^1-benzyl-N^2-[(9-oxo-9H-fluoren-2-yl)carbonyl]-L-α-glutamine], the results for the IC50 in assay [1] (Table 2) and in assay [2] (Table 2) were 1900 nM and 813 nM, respectively.

With `CC(C)(Cc1ccccc1)NC(=O)[C@H](CCC(=O)O)NC(=O)c1ccc(-c2ccncc2)s1` [N-(1,1-dimethyl-2-phenylethyl)-N^2-[(5-pyridin-4-yl-2-thienyl)carbonyl]-L-α-glutamine], the IC50 in assay [1] (Table 3) is 3300 nM; in assay [2] (Table 3), below 30 nM.

Turning to `CC(C)(Cc1ccccc1)NC(=O)[C@H](CCC(=O)O)NC(=O)c1ccc(-c2cncnc2)cc1` [Example 8FFFFFFF, N-(1,1-dimethyl-2-phenylethyl)-N^2-(4-pyrimidin-5-ylbenzoyl)-L-α-glutamine], the results for the IC50 in assay [1] (Table 3) and in assay [2] (Table 3) were 4200 nM and 200 nM, respectively.

For the compound `Cc1cccc(CNC(=O)[C@H](CCC(=O)O)NC(=O)c2ccc3c(c2)C(=O)c2ccccc2-3)c1` [Example 8DDDDD, N^1-(3-methylbenzyl)-N^2-[(9-oxo-9H-fluoren-2-yl)carbonyl]-L-α-glutamine], the IC50 is 1100 nM in assay [1] (Table 2) and 315 nM in assay [2] (Table 2).

Consider `COc1cccc(-c2ccc(C(=O)N[C@@H](CCC(=O)O)C(=O)NC(C)(C)Cc3ccc(F)cc3)cc2)c1` [Example 17EE, N-[2-(4-fluorophenyl)-1,1-dimethylethyl]-N^2-[(3′-methoxybiphenyl-4-yl)carbonyl]-L-α-glutamine], for which the IC50 was 194 nM in assay [1] (Table 2) and below 30 nM in assay [2] (Table 2).

On to `CC(C)(Cc1ccc(Cl)cc1)NC(=O)[C@H](CCC(=O)O)NC(=O)c1ccc(-c2ccc(F)cc2)s1` [N-[2-(4-chlorophenyl)-1,1-dimethylethyl]-N^2-{[5-(4-fluorophenyl)-2-thienyl]carbonyl}-L-α-glutamine], for which, in assay [1] (Table 3), the IC50 fell in the range of 30 to 100 nM and the Ki was determined as 87 nM. In assay [2] (Table 3), the IC50 was below 30 nM and the inhibition constant Ki is below 3 nM.

As for `O=C(O)CC[C@H](NC(=O)c1ccc(-c2ccc3ccccc3c2)cc1)C(=O)NCc1ccccc1` [Example 12F, N-benzyl-N^2-[4-(2-naphthyl)benzoyl]-L-α-glutamine], the values for the IC50 in assay [1] (Table 2) and in assay [2] (Table 2) were 3000 to 8000 nM and around 3000 nM, respectively.

Consider `CC(C)(Cc1ccc(Cl)cc1)NC(=O)[C@H](CCC(=O)O)NC(=O)c1ccc(-c2nccs2)cc1` [N-[2-(4-chlorophenyl)-1,1-dimethylethyl]-N^2-[4-(1,3-thiazol-2-yl)benzoyl]-L-α-glutamine], for which, in assay [1] (setting [3]), the inhibition at 2.5 µM amounted to 50%. Further, the 50% inhibitory concentration (IC50) in assay [2] (Table 3) amounted to 1200 nM.

`CCCCCNC(=O)[C@H](CCC(=O)O)NC(=O)c1ccc(-c2ccccc2)cc1` [Example 8RRR, N^2-(biphenyl-4-ylcarbonyl)-N^1-pentyl-L-α-glutamine]: the IC50 in assay [1] (Table 1) is 680 nM; in assay [2] (Table 1), 82 nM.

On to `COc1cc(CNC(=O)[C@H](CCC(=O)O)NC(=O)c2ccc(-c3cccc(O)c3)cc2)cc(OC)c1OC` [Example 17RR, N^2-[(3′-hydroxybiphenyl-4-yl)carbonyl]-N-(3,4,5-trimethoxybenzyl)-L-α-glutamine], for which the IC50 is 26 nM in assay [1] (Table 2) and below 30 nM in assay [2] (Table 2).

For the compound `COc1cccc(COc2ccc(-c3ccc(C(=O)N[C@@H](CCC(=O)O)C(=O)NC(C)(C)Cc4ccccc4)cc3)cc2)c1` [Example 19F, N-(1,1-dimethyl-2-phenylethyl)-N^2-({4′-[(3-methoxybenzyl)oxy]biphenyl-4-yl}carbonyl)-L-α-glutamine], the IC50 in assay [1] (Table 2) was determined as 163 nM; in assay [2] (Table 2), 68 nM.

`COc1cc(CNC(=O)[C@H](CCC(=O)O)NC(=O)c2ccc(-c3ccc(C(C)C)cc3)cc2)cc(OC)c1OC` [Example 17AA, N^2-[(4′-isopropylbiphenyl-4-yl)carbonyl]-N-(3,4,5-trimethoxybenzyl)-L-α-glutamine]: the concentration for half-maximal inhibition (IC50) in assay [1] (Table 2) is 5700 nM; in assay [2] (Table 2), 3500 nM.

As for `C#Cc1ccc(-c2ccc(CCNC(=O)[C@H](CCC(=O)O)NC(=O)c3ccc(-c4ccccc4)cc3)cc2)cc1` [Example 10F, N^2-(biphenyl-4-ylcarbonyl)-N^1-[2-(4′-ethynylbiphenyl-4-yl)ethyl]-L-α-glutamine], the IC50 in assay [1] (Table 1) is above 30000 nM; in assay [2] (Table 1), 130 nM.

`CC(C)(Cc1ccccc1)NC(=O)[C@H](CCC(=O)O)NC(=O)c1ccc(-c2ccc3c(c2)OCO3)cc1` [Example 17P, N^2-[4-(1,3-benzodioxol-5-yl)benzoyl]-N-(1,1-dimethyl-2-phenylethyl)-L-α-glutamine]: the IC50 worked out at 58 nM in assay [1] (Table 2) and 126 nM in assay [2] (Table 2).

For the compound `COc1ccc(-c2cccc(CCNC(=O)[C@H](CCC(=O)O)NC(=O)c3ccc(-c4ccccc4)cc3)c2)cc1` [Example 10L, N^2-(biphenyl-4-ylcarbonyl)-N^1-[2-(4′-methoxybiphenyl-3-yl)ethyl]-L-α-glutamine], the IC50 in assay [1] (Table 1) is 2000 nM; in assay [2] (Table 1), 130 nM.

`CC(C)(Cc1ccccc1)NC(=O)[C@H](CCC(=O)O)NC(=O)c1ccc(-c2ccc(CO)cc2)cc1` [Example 17SS, N-(1,1-dimethyl-2-phenylethyl)-N^2-{[4′-(hydroxymethyl)biphenyl-4-yl]carbonyl}-L-α-glutamine]: the IC50 in assay [1] (Table 2) was 3960 nM; in assay [2] (Table 2), 450 nM.

Consider `CC(C)(Cc1ccc(F)cc1)NC(=O)[C@H](CCC(=O)O)NC(=O)c1ccc(-c2ccc(F)c(Cl)c2)cc1` [Example 8SSSSSSS, N^2-[(3′-chloro-4′-fluorobiphenyl-4-yl)carbonyl]-N-[2-(4-fluorophenyl)-1,1-dimethylethyl]-L-α-glutamine], for which, in assay [1] (Table 3), the IC50 was found to be 230 nM and the Ki amounted to 356 nM. Also, in assay [2] (Table 3), the IC50 stood at 57 nM and the Ki was 22 nM.

For the compound `O=C(O)CC[C@H](NC(=O)c1ccc(/C=C/C(=O)c2ccccc2)cc1)C(=O)NCc1ccccc1` [Example 12I, N-benzyl-N^2-{4-[(1E)-3-oxo-3-phenylprop-1-en-1-yl]benzoyl}-L-α-glutamine], the IC50 in assay [1] (Table 2) is above 20000 nM; in assay [2] (Table 2), above 25000 nM.
